According to patent US10131652B2, “Pyrimidinyloxy benzene derivatives as herbicides” (E. I. DU PONT DE NEMOURS AND COMPANY, priority 2014, dated 2018):

Assays:
Assay type in all cases: in vivo
kochia (Kochia scoparia) = test: Test B pre-/postemergence plant response
Method in brief: (§1)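 Greenhouse pots, loam/sand soil; compound formulated with surfactant in non-phytotoxic solvent. Preemergence soil spray and postemergence spray at 1–2 leaf stage run simultaneously. Visual injury, 0–100, about 10 days post-treatment.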

[1] = system: Italian ryegrass (Lolium multiflorum); test: Test B pre-/postemergence plant response
Method in brief: as §1

[2] = system: ragweed (common ragweed, Ambrosia elatior); test: Test B pre-/postemergence plant response
Method in brief: as §1

[3] = system: blackgrass (Alopecurus myosuroides); test: Test D pre-/postemergence plant response; conditions: Postemergence; for Plant response rating, Blackgrass: scale 0 to 100, 0 no effect, 100 complete control
Method in brief: (§2)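 Greenhouse herbicidal response, both pre- and postemergence applications, with solvent/surfactant formulation. Postemergence plants were at 1- to 4-leaf stage. Visual scores 0–100 relative to controls, taken 13 to 15 days later.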

corn (Zea mays) = test: Test D pre-/postemergence plant response; conditions: Postemergence; for Plant response rating, Corn: scale 0 to 100, 0 no effect, 100 complete control
Method in brief: as §2

[4] = system: lambsquarters (Chenopodium album); test: Test D pre-/postemergence plant response; conditions: Postemergence
Method in brief: as §2

[5] = system: Italian ryegrass (Lolium multiflorum); test: Test D pre-/postemergence plant response; conditions: Postemergence
Method in brief: as §2

[6] = system: large (Lg) crabgrass (Digitaria sanguinalis); test: Test D pre-/postemergence plant response; conditions: Postemergence; for Plant response rating, Crabgrass, Large: scale 0 to 100, 0 no effect, 100 complete control
Method in brief: as §2

[7] = system: velvetleaf (Abutilon theophrasti); test: Test D pre-/postemergence plant response; conditions: Postemergence
Method in brief: as §2

[8] = system: barnyardgrass (Echinochloa crus-galli); test: Test D pre-/postemergence plant response; conditions: Postemergence; for Plant response rating, Barnyardgrass: scale 0 to 100, 0 no effect, 100 complete control
Method in brief: as §2

[9] = system: giant foxtail (Setaria faberii); test: Test D pre-/postemergence plant response; conditions: Postemergence; for Plant response rating, Foxtail, Giant: scale 0 to 100, 0 no effect, 100 complete control
Method in brief: as §2

[10] = system: pigweed (Amaranthus retroflexus); test: Test D pre-/postemergence plant response; conditions: Postemergence
Method in brief: as §2

[11] = system: morningglory (Ipomoea coccinea); test: Test D pre-/postemergence plant response; conditions: Postemergence
Method in brief: as §2

soybean (Glycine max) = test: Test D pre-/postemergence plant response; conditions: Postemergence
Method in brief: as §2

[12] = system: waterhemp (common waterhemp, Amaranthus rudis); test: Test D pre-/postemergence plant response; conditions: Postemergence
Method in brief: as §2

[13] = 31 g ai/ha, Preemergence, 0 to 100 scale where 0 is no effect and 100 is complete control
[14] = 125 g ai/ha, postemergence, 0 to 100 scale, 0 no effect, 100 complete control
[15] = Postemergence, 31 g ai/ha, 0 to 100 scale (0 no effect, 100 complete control)
[16] = Preemergence, 125 g ai/ha, 0 to 100 scale (0 no effect, 100 complete control)
[17] = 31 g ai/ha, scale 0 to 100 (0 no effect, 100 complete control)
[18] = 62 g ai/ha, scale 0 to 100, 0 no effect, 100 complete control
[19] = 125 g ai/ha, scale 0 to 100, 0 no effect, 100 complete control

CC(F)(F)c1cc(-c2ccccc2Oc2ncc(Cl)cn2)no1 [Compound 220]
60: Plant response rating (scale 0 to 100), Waterhemp ([12]; 4 g ai/ha)
0: Plant response rating, Ryegrass, Italian [1, 13] | Plant response rating, Ryegrass, Italian [1, 15] | Plant response rating, Ragweed [2, 13] | Plant response rating, Ragweed [2, 15] | Plant response rating (scale 0 to 100), Blackgrass ([3]; 2 g ai/ha) | Plant response rating (scale 0 to 100), Blackgrass ([3]; 4 g ai/ha) | Plant response rating (scale 0 to 100), Blackgrass ([3]; 8 g ai/ha) | Plant response rating (scale 0 to 100), Corn (corn (Zea mays); 2 g ai/ha) | Plant response rating (scale 0 to 100), Ryegrass, Italian ([5]; 2 g ai/ha) | Plant response rating (scale 0 to 100), Ryegrass, Italian ([5]; 4 g ai/ha) | Plant response rating (scale 0 to 100), Ryegrass, Italian ([5]; 8 g ai/ha) | Plant response rating (scale 0 to 100), Ryegrass, Italian ([5]; 16 g ai/ha) | Plant response rating (scale 0 to 100), Foxtail, Giant ([9]; 2 g ai/ha)
10: Plant response rating, Ragweed [2, 14] | Ragweed plant response rating [2, 16] | Plant response rating (scale 0 to 100), Velvetleaf ([7]; 8 g ai/ha) | Plant response rating (scale 0 to 100), Barnyardgrass ([8]; 8 g ai/ha) | Plant response rating (scale 0 to 100), Barnyardgrass ([8]; 16 g ai/ha) | Plant response rating (scale 0 to 100), Soybean (soybean (Glycine max); 4 g ai/ha) | Plant response rating (scale 0 to 100), Soybean (soybean (Glycine max); 8 g ai/ha) | Plant response rating (scale 0 to 100), Soybean (soybean (Glycine max); 16 g ai/ha)
75: Plant response rating (scale 0 to 100), Pigweed ([10]; 4 g ai/ha) | Plant response rating (scale 0 to 100), Morningglory ([11]; 16 g ai/ha)
70: Plant response rating (scale 0 to 100), Lambsquarters ([4]; 16 g ai/ha) | Plant response rating (scale 0 to 100), Pigweed ([10]; 2 g ai/ha) | Plant response rating (scale 0 to 100), Waterhemp ([12]; 8 g ai/ha)
15: Plant response rating (scale 0 to 100), Crabgrass, Large ([6]; 16 g ai/ha) | Plant response rating (scale 0 to 100), Velvetleaf ([7]; 4 g ai/ha) | Plant response rating (scale 0 to 100), Morningglory ([11]; 4 g ai/ha) | Plant response rating (scale 0 to 100), Soybean (soybean (Glycine max); 2 g ai/ha) | Plant response rating (scale 0 to 100), Waterhemp ([12]; 2 g ai/ha)
40: Plant response rating, Ryegrass, Italian [1, 14]
100: Plant response rating, Kochia (kochia (Kochia scoparia); [14])
50: Plant response rating, Kochia (kochia (Kochia scoparia); [13])
90: Plant response rating, Kochia (kochia (Kochia scoparia); [15]) | Kochia plant response rating (kochia (Kochia scoparia); [16])
35: Plant response rating (scale 0 to 100), Morningglory ([11]; 2 g ai/ha)
85: Plant response rating (scale 0 to 100), Pigweed ([10]; 16 g ai/ha)
25: Plant response rating (scale 0 to 100), Velvetleaf ([7]; 16 g ai/ha) | Plant response rating (scale 0 to 100), Morningglory ([11]; 8 g ai/ha)
55: Plant response rating (scale 0 to 100), Lambsquarters ([4]; 2 g ai/ha)
80: Plant response rating (scale 0 to 100), Pigweed ([10]; 8 g ai/ha) | Plant response rating (scale 0 to 100), Waterhemp ([12]; 16 g ai/ha)
30: Ryegrass, Italian plant response rating [1, 16]
5: Plant response rating (scale 0 to 100), Blackgrass ([3]; 16 g ai/ha) | Plant response rating (scale 0 to 100), Corn (corn (Zea mays); 4 g ai/ha) | Plant response rating (scale 0 to 100), Corn (corn (Zea mays); 8 g ai/ha) | Plant response rating (scale 0 to 100), Corn (corn (Zea mays); 16 g ai/ha) | Plant response rating (scale 0 to 100), Lambsquarters ([4]; 8 g ai/ha) | Plant response rating (scale 0 to 100), Crabgrass, Large ([6]; 2 g ai/ha) | Plant response rating (scale 0 to 100), Crabgrass, Large ([6]; 4 g ai/ha) | Plant response rating (scale 0 to 100), Crabgrass, Large ([6]; 8 g ai/ha) | Plant response rating (scale 0 to 100), Velvetleaf ([7]; 2 g ai/ha) | Plant response rating (scale 0 to 100), Barnyardgrass ([8]; 2 g ai/ha) | Plant response rating (scale 0 to 100), Barnyardgrass ([8]; 4 g ai/ha) | Plant response rating (scale 0 to 100), Foxtail, Giant ([9]; 4 g ai/ha) | Plant response rating (scale 0 to 100), Foxtail, Giant ([9]; 8 g ai/ha) | Plant response rating (scale 0 to 100), Foxtail, Giant ([9]; 16 g ai/ha)
45: Plant response rating (scale 0 to 100), Lambsquarters ([4]; 4 g ai/ha)

CC(F)(F)c1cc(-c2ccccc2Oc2ncc(Cl)cn2)on1 [Compound 178]
20: Kochia plant response rating (kochia (Kochia scoparia); [16]) | Plant response rating, Crabgrass, Large ([6]; 62 g ai/ha) | Plant response rating, Barnyardgrass ([8]; 125 g ai/ha)
25: Plant response rating (scale 0 to 100), Lambsquarters ([4]; 16 g ai/ha) | Plant response rating, Foxtail, Giant ([9]; 125 g ai/ha)
0: Plant response rating, Ryegrass, Italian [1, 13] | Plant response rating, Ryegrass, Italian [1, 15] | Plant response rating, Ragweed [2, 13] | Ragweed plant response rating [2, 16] | Plant response rating (scale 0 to 100), Blackgrass ([3]; 16 g ai/ha) | Plant response rating (scale 0 to 100), Corn (corn (Zea mays); 16 g ai/ha) | Plant response rating (scale 0 to 100), Ryegrass, Italian ([5]; 16 g ai/ha) | Ryegrass, Italian plant response rating [5, 17] | Plant response rating (scale 0 to 100), Foxtail, Giant ([9]; 16 g ai/ha)
75: Lambsquarters plant response rating [4, 18] | Plant response rating, Velvetleaf [7, 19]
60: Plant response rating (scale 0 to 100), Velvetleaf ([7]; 16 g ai/ha) | Velvetleaf plant response rating [7, 18]
40: Velvetleaf plant response rating [7, 17]
35: Soybean plant response rating (soybean (Glycine max); [17]) | Soybean plant response rating (soybean (Glycine max); [18])
85: Pigweed plant response rating [10, 17] | Pigweed plant response rating [10, 18] | Waterhemp plant response rating [12, 18]
100: Plant response rating, Kochia (kochia (Kochia scoparia); [14]) | Morningglory plant response rating [11, 17] | Morningglory plant response rating [11, 18]
45: Plant response rating, Soybean (soybean (Glycine max); [19])
90: Plant response rating, Lambsquarters [4, 19] | Plant response rating, Pigweed [10, 19] | Plant response rating, Morningglory [11, 19] | Plant response rating, Waterhemp [12, 19]
15: Plant response rating, Blackgrass ([3]; 125 g ai/ha) | Plant response rating, Crabgrass, Large ([6]; 125 g ai/ha) | Barnyardgrass plant response rating [8, 17] | Plant response rating (scale 0 to 100), Soybean (soybean (Glycine max); 16 g ai/ha)
30: Plant response rating, Ryegrass, Italian [1, 14]
5: Blackgrass plant response rating [3, 17] | Corn plant response rating (corn (Zea mays); [17]) | Plant response rating, Corn (corn (Zea mays); 62 g ai/ha) | Ryegrass, Italian plant response rating [5, 18] | Plant response rating, Ryegrass, Italian [5, 19] | Plant response rating (scale 0 to 100), Crabgrass, Large ([6]; 16 g ai/ha) | Foxtail, Giant plant response rating [9, 17] | Plant response rating, Foxtail, Giant ([9]; 62 g ai/ha)
80: Plant response rating, Kochia (kochia (Kochia scoparia); [15]) | Plant response rating (scale 0 to 100), Pigweed ([10]; 16 g ai/ha) | Waterhemp plant response rating [12, 17]
70: Lambsquarters plant response rating [4, 17] | Plant response rating (scale 0 to 100), Morningglory ([11]; 16 g ai/ha) | Plant response rating (scale 0 to 100), Waterhemp ([12]; 16 g ai/ha)
10: Plant response rating, Kochia (kochia (Kochia scoparia); [13]) | Ryegrass, Italian plant response rating [1, 16] | Plant response rating, Ragweed [2, 14] | Plant response rating, Ragweed [2, 15] | Plant response rating, Blackgrass ([3]; 62 g ai/ha) | Plant response rating, Corn (corn (Zea mays); 125 g ai/ha) | Crabgrass, Large plant response rating [6, 17] | Plant response rating (scale 0 to 100), Barnyardgrass ([8]; 16 g ai/ha) | Plant response rating, Barnyardgrass ([8]; 62 g ai/ha)
